From ChEMBL document CHEMBL3580636, “Discovery of a Potent Class of PI3Kα Inhibitors with Unique Binding Mode via Encoded Library Technology (ELT)” (ACS Med Chem Lett, 2015)

What was measured:
[1] = biological target: Phosphatidylinositol 4,5-bisphosphate 3-kinase catalytic subunit alpha isoform (Homo sapiens, UniProt P42336); experiment: Inhibition of wild type his-tagged PI3Kalpha (unknown origin)
[2] = biological target: T1, Phosphatidylinositol 4,5-bisphosphate 3-kinase catalytic subunit delta isoform (Homo sapiens, UniProt O00329); experiment: Inhibition of PI3Kdelta (unknown origin)
T1 sequence (O00329 whole entry): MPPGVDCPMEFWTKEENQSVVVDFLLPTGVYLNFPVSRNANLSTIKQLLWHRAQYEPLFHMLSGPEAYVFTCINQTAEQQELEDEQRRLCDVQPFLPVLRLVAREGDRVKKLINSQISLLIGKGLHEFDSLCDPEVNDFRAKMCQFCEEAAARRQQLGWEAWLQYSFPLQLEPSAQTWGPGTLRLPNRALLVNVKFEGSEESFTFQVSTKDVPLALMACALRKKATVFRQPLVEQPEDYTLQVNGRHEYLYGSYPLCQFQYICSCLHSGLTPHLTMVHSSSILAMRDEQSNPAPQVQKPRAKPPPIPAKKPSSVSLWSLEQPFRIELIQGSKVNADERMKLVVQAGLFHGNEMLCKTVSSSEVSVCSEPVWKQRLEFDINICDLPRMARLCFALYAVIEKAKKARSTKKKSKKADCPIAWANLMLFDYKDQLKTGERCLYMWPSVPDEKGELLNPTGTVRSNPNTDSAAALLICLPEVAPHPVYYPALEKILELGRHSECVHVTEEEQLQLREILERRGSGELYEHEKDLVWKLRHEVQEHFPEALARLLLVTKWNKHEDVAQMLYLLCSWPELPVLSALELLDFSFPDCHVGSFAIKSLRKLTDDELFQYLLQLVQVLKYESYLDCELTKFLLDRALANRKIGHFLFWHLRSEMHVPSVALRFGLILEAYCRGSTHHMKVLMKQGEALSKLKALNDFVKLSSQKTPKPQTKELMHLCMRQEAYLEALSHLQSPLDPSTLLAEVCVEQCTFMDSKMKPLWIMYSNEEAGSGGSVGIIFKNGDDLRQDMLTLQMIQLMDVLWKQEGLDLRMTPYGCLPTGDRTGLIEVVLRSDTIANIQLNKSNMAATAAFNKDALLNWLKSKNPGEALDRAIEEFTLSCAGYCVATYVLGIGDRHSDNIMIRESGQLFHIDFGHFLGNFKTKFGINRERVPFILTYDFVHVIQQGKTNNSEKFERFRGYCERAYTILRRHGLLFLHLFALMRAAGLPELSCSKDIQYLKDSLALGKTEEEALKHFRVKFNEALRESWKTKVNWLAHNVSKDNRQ

[3] = biological target: Phosphatidylinositol 4,5-bisphosphate 3-kinase catalytic subunit beta isoform (Homo sapiens, UniProt P42338); experiment: Inhibition of PI3Kbeta (unknown origin)
Sequence of Phosphatidylinositol 4,5-bisphosphate 3-kinase catalytic subunit beta isoform (P42338 whole entry, canonical isoform): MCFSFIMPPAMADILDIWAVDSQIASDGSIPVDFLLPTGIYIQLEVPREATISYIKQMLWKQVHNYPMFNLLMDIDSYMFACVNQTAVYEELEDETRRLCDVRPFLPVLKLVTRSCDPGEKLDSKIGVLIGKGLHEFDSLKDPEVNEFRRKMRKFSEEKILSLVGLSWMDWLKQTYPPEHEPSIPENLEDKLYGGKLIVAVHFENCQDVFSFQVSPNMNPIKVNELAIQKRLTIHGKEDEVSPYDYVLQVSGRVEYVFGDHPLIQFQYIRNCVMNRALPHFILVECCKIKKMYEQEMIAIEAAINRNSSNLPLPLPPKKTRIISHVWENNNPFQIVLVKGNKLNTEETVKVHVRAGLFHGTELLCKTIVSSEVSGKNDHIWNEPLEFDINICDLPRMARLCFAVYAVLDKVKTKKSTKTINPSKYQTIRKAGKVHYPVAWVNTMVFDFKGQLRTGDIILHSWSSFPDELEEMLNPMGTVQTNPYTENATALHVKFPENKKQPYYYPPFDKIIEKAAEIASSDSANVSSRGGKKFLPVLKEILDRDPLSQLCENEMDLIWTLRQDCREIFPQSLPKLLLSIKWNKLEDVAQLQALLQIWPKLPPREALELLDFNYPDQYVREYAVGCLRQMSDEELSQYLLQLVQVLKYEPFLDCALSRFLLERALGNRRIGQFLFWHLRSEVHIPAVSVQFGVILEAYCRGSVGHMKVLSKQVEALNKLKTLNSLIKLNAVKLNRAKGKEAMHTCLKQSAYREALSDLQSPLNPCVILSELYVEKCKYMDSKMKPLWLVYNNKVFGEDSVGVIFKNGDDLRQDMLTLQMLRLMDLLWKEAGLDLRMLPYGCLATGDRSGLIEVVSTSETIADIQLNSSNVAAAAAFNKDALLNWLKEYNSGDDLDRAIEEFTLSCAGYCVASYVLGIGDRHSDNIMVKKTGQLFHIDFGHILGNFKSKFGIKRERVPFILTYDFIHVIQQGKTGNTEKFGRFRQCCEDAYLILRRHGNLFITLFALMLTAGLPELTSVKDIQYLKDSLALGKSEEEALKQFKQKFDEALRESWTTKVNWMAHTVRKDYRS

[4] = biological target: Phosphatidylinositol 4,5-bisphosphate 3-kinase catalytic subunit alpha isoform (Homo sapiens, UniProt P42336, H1047R); experiment: Inhibition of PI3Kalpha H1047R mutant (unknown origin)
Sequence of Phosphatidylinositol 4,5-bisphosphate 3-kinase catalytic subunit alpha isoform (Homo sapiens, UniProt P42336, H1047R) (P42336 whole entry H1047R, canonical isoform): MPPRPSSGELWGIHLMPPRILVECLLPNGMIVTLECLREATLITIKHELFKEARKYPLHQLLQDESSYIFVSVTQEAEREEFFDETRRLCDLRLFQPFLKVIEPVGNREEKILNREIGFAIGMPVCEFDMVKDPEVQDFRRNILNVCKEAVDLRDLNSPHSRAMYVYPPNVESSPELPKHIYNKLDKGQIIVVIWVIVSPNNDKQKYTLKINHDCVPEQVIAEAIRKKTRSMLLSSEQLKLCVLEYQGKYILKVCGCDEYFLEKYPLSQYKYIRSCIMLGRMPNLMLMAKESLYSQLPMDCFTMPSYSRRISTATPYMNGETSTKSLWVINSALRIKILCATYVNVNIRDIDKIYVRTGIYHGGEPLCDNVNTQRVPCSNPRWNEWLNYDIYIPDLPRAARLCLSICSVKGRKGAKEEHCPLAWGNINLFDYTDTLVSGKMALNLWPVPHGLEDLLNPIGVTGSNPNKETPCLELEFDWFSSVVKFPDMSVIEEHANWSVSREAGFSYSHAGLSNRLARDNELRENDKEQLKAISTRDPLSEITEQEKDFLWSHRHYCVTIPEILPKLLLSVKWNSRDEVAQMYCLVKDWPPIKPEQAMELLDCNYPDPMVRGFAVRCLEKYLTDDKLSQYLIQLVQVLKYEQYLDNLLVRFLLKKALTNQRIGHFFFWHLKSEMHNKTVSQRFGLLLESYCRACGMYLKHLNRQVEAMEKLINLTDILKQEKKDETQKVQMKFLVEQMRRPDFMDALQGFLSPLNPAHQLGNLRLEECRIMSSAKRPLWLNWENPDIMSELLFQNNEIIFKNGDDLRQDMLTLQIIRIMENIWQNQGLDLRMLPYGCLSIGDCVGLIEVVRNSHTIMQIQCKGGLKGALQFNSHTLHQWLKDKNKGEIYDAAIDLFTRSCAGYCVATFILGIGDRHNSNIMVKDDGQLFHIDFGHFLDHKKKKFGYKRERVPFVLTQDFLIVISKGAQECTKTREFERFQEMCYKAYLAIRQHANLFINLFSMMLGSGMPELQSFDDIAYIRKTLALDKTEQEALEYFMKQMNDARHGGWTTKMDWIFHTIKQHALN

[5] = biological target: Phosphatidylinositol 4,5-bisphosphate 3-kinase catalytic subunit gamma isoform (Homo sapiens, UniProt P48736); experiment: Inhibition of PI3Kgamma (unknown origin)
Sequence of Phosphatidylinositol 4,5-bisphosphate 3-kinase catalytic subunit gamma isoform (P48736 whole entry, canonical isoform): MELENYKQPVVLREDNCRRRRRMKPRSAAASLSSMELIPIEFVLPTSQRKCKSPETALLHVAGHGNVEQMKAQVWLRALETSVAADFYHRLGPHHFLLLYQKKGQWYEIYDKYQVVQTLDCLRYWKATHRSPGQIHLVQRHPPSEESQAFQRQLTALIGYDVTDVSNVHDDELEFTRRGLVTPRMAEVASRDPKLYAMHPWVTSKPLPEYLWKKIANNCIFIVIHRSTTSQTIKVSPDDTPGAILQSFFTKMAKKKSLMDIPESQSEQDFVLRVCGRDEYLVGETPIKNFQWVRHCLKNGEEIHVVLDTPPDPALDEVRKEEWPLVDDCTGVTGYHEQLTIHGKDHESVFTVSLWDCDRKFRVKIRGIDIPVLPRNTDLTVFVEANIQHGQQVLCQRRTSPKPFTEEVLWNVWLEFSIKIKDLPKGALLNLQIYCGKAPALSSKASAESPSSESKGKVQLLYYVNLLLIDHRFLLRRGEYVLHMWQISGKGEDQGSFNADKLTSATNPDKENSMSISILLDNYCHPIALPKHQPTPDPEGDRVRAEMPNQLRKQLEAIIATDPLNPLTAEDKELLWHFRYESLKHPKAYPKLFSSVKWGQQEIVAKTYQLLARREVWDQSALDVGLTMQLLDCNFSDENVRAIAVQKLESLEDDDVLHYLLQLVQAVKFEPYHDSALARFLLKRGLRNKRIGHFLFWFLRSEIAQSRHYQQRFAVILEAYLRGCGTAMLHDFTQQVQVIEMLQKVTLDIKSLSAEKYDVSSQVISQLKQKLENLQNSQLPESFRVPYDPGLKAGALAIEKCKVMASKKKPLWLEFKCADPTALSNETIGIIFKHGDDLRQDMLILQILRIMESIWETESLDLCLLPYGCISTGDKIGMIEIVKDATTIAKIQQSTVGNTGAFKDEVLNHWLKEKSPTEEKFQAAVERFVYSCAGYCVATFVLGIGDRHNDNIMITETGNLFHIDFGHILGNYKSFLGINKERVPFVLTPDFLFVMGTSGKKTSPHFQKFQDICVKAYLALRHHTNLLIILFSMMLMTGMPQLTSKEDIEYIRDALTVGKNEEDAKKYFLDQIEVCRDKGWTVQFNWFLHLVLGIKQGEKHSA

Homo sapiens [6] = organism: Homo sapiens; experiment: Selectivity ratio of IC50 for PI3Kbeta (unknown origin) to IC50 for wild type his-tagged PI3Kalpha (unknown origin)
Homo sapiens [7] = organism: Homo sapiens; experiment: Selectivity ratio of IC50 for PI3Kdelta (unknown origin) to IC50 for wild type his-tagged PI3Kalpha (unknown origin)

Sequence of Phosphatidylinositol 4,5-bisphosphate 3-kinase catalytic subunit alpha isoform (Homo sapiens, UniProt P42336) (P42336 whole entry, canonical isoform): as the sequence (P42336 whole entry H1047R, canonical isoform) above, with R1047H counted along it

Row | Structure (SMILES) | IC50 [1] [µM] | IC50 [2] [µM] | IC50 [3] [µM] | IC50 [4] [µM] | IC50 [5] [µM] | Ratio IC50 (Homo sapiens [6]) | Ratio IC50 (Homo sapiens [7])
1 | COc1ccc(-c2cc(CNc3ccc(S(=O)(=O)Nc4nnc(C)s4)cc3)cc(C(=O)NCCc3ccccc3F)c2)cn1 | 0.0065 | 0.01 | 0.7 | 0.013 | 0.0044 |  | 
2 | Cc1nnc(NS(=O)(=O)c2ccc(NCc3cc(C(=O)O)cc(-c4ccc5c(c4)OCCO5)c3)cc2)s1 | 0.0126 | 0.0631 | 0.126 |  | 0.002 | 5 | 5
3 | COc1ccc(-c2cc(CNc3ccc(S(=O)(=O)Nc4nnc(C)s4)cc3)cc(C(=O)NC(CO)CO)c2)cn1 | 0.016 | 0.02 | 0.79 | 0.016 | 0.025 |  | 
4 | COc1ccc(-c2cccc(CNc3ccc(S(=O)(=O)Nc4nnc(C)s4)cc3)c2)cn1 | 0.102 | 0.044 | 0.765 |  | 0.052 |  | 
5 | COC(=O)c1cc(CNc2ccc(S(=O)(=O)Nc3nnc(C)s3)cc2)cc(-c2ccc(OC)nc2)c1 | 0.046 |  |  | 0.03 |  |  | 
6 | COc1ccc(-c2cc(CNc3ccc(S(=O)(=O)N(C)c4nnc(C)s4)cc3)cc(C(=O)NCCc3ccccc3F)c2)cn1 | 2 | 2 | > 10 | > 10 | > 10 |  | 

Next, values leading:

Row | IC50 [1] [µM] | IC50 [2] [µM] | IC50 [3] [µM] | IC50 [4] [µM] | IC50 [5] [µM] | Ratio IC50 (Homo sapiens [6]) | Ratio IC50 (Homo sapiens [7]) | Structure (SMILES)
7 | 0.0398 | 0.199 | 0.501 |  | 0.004 | 5 | 5 | Cc1nnc(NS(=O)(=O)c2ccc(NCc3cc(C(=O)O)cc(-c4ccc5c(c4)OCO5)c3)cc2)s1
8 | 0.0096 | 0.004 | 0.398 | 0.011 | 0.01 |  |  | COc1ccc(-c2cc(CNc3ccc(S(=O)(=O)Nc4nnc(C)s4)cc3)cc(C(=O)NCCC(C)C)c2)cn1
9 | > 25 |  |  | 13 |  |  |  | COC(=O)c1cc(I)cc(CNc2ccc(S(=O)(=O)Nc3nnc(C)s3)cc2)c1
10 | 0.01 | 0.059 | 0.149 | 0.0085 | 0.0026 | 5 | 5 | COc1ccc(-c2cc(CNc3ccc(S(=O)(=O)Nc4nnc(C)s4)cc3)cc(C(=O)O)c2)cn1
